The values that follow are results of earlier work, collected in patent US6444192B1, “Diagnostic imaging of lymph structures” (The Regents of the University of California, priority 1999, dated 2002).

For this data set the following is noted: 3 to 5 mL in the breast mass and surrounding tissue.

Read-outs that look alike come from different tables or passages of the source.

As for `CCN(CC)c1ccc(C(=C2C=CC(=[N+](CC)CC)C=C2)c2cc(S(=O)(=O)[O-])ccc2S(=O)(=O)[O-])cc1.[Na+]` [isosulfan blue], the sentinel node detected (first 87 cases) is 58% and the sentinel node detected (next 87 cases) is 78%.
